Source: patent US20230093099A1, “COMPOUNDS AND METHODS OF TREATING CANCERS” (CULLGEN (SHANGHAI), INC., priority 2019, published 2023)

Tests used:
[1] = system: Kasumi-1 cells; test: Cell viability assay (CellTiter-Glo) in Kasumi-1 cells; type: cell-based; details: for IC50: Homo sapiens, 72 h, Kasumi-1, AML, cell viability, 3 days; for cell viability inhibition in combination with pomalidomide: Kasumi-1, 3 days, pomalidomide at 10 μM (FIG. 4)
Experimental: (§1) MV4;11, RS4;11, Kasumi-1, HEL and other cells were treated with NVP-BSK805, TG101209 or selected degraders for 3 days at indicated concentrations following a 3-fold serial dilution.
(§2) HEL, RS4;11, MV4;11, Kasumi-1 and other cells were cultured at 37° C. with 5% CO2 in RPMI 1640 or DMEM Medium supplemented with 10% fetal bovine serum. Cells were authenticated using the short tandem repeat (STR) assays. Mycoplasma test results were negative.
(§3) Cells were seeded at a density of 5000 cells per well in 96-well assay plates and treated with test compounds following a 8-point or 12-point 3-fold serial dilution. Three days later, cell viability was determined using the CellTiter-Glo assay kit according to the manufacturer's instructions. The dose-response curves were determined and IC50 values were calculated using the GraphPad Prism software following a nonlinear regression (least squares fit) method.

[2] = system: MM.1S cells; test: Cell viability assay (CellTiter-Glo) in MM.1S cells; type: cell-based; details: Homo sapiens, MM1.S, 72 h, Multiple Myeloma, 3 days
Experimental: as §1, §2, §3

[3] = system: immortalized human lung fibroblast IMR-90 cells; test: Cell viability of non-cancerous lung fibroblast IMR-90 cells; type: cell-based; details: IMR-90, 3 days, 3-fold serial dilution (FIG. 6)
Experimental: (§4) Immortalized human lung fibroblast IMR-90 and keratinocyte HACAT cells were treated with JA-189 or JA-213 for 3 days at indicated concentrations following a 3-fold serial dilution.
as §3

[4] = system: keratinocyte HACAT cells; test: Cell viability of non-cancerous keratinocyte HACAT cells; type: cell-based, human; details: 3 days, 3-fold serial dilution (FIG. 6)
Experimental: as §4, §3

[5] = target: T1, JAK3 (Homo sapiens, UniProt P52333); test: Immunoblot of JAK3 protein level in HEL cells; type: cell-based; details: immunoblot (FIG. 1)
T1 construct: immunoblot of JAK1/2/3 proteins expressed in HEL cells; endogenous in cells; host or cells: HEL cells
T1 sequence (P52333 1-1124): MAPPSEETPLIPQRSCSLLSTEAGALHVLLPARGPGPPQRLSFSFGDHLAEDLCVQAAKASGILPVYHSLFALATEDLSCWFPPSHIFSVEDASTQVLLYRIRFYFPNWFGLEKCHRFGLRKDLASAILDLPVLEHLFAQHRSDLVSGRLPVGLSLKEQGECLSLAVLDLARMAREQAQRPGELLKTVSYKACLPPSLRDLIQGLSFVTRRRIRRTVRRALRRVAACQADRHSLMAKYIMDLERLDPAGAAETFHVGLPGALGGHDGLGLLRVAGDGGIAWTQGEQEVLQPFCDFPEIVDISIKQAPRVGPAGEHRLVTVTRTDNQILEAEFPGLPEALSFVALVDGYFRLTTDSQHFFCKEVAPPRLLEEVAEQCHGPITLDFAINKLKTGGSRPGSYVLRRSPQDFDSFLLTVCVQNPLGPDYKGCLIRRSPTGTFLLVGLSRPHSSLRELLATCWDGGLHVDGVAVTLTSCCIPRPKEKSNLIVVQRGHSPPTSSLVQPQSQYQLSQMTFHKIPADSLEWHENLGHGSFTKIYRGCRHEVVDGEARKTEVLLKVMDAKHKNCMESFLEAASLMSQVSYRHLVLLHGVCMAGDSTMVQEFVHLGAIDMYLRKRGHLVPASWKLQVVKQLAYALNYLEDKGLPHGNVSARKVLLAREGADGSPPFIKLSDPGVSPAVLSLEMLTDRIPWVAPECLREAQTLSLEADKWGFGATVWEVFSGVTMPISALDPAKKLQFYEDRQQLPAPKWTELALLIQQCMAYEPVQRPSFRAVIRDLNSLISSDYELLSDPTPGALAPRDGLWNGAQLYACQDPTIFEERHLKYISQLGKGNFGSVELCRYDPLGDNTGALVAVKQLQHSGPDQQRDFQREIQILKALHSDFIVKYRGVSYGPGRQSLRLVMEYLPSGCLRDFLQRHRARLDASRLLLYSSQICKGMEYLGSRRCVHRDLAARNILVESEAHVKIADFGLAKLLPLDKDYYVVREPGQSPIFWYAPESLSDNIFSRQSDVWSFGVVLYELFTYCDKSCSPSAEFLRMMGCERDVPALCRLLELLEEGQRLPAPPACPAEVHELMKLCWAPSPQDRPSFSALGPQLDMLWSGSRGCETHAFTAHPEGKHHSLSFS
Experimental: (§5) To confirm JA-189 and JA-213 are true JAK degraders, HEL cell were treated with these two compounds at various compounds concentrations.
as §2
(§6) Rabbit anti-JAK1 antibody (3344S), anti-JAK2 antibody (3230S), anti-JAK3 antibody (8827S), anti-TYK2 antibody (14193S), anti-FLT3 antibody (3462S), anti-RET antibody (14556S), anti-phospho-STAT3 (Tyr705) antibody (9145S) and anti-phospho-STAT5 (Tyr694) antibody (4322S) were purchased from Cell Signaling Technology. Rabbit anti-GSPT1 antibody (ab126090) was purchased from Abcam. HRP-conjugated anti-α-tubulin antibody was produced in house. Media and other cell culture reagents were purchased from Thermo Fisher. The CellTiter-Glo Luminescent Assay kit was purchased from Promega.
(§7) Cultured cells were washed with cold PBS once and lysed in cold RIPA buffer supplemented with protease inhibitors and phosphatase inhibitors (Beyotime Biotechnology). […] Total protein concentrations in the lysates were determined by BCA assays (Beyotime Biotechnology). […] Protein bands were quantitated using the accompanied software provided by Bio-Rad.

[6] = system: p-STAT3; test: Immunoblot of p-STAT3 (downstream signaling) in HEL cells; type: cell-based; details: immunoblot (FIG. 1)
Experimental: as §5, §2, §6, §7

[7] = target: T2, GSPT1 (Homo sapiens, UniProt P15170); test: Immunoblot of GSPT1 protein level in RS4;11 cells; type: cell-based; details: 16 hours; for GSPT1 protein level: immunoblot (FIG. 5)
T2 construct: immunoblot of GSPT1 and tubulin expressed in RS4:11 cells; endogenous in cells; host or cells: RS4;11 cells
Experimental: RS4;11 cells were treated with compounds at indicated concentrations for 16 hours. […] The concentrations required to reduce GSPT1 by 50% (DC50) were below 2 nM for compound JA-189 and 10 nM JA213.
as §2, §6
Cultured cells were washed with cold PBS once and lysed in cold RIPA buffer supplemented with protease inhibitors and phosphatase inhibitors (Beyotime Biotechnology). The solutions were then incubated at 4° C. for 30 minutes with gentle agitation to fully lyse cells. Cell lysates were centrifuged at 13,000 rpm for 10 minutes at 4° C. and pellets were discarded. Total protein concentrations in the lysates were determined by BCA assays (Beyotime Biotechnology). Cell lysates were mixed with Laemmli loading buffer to 1× and heated at 99° C. for 5 min. Proteins were resolved on SDS-PAGE and visualized by chemiluminescence. Images were taken by a ChemiDoc MP Imaging system (Bio-Rad). Protein bands were quantitated using the accompanied software provided by Bio-Rad.

T2 sequence (P15170 whole entry): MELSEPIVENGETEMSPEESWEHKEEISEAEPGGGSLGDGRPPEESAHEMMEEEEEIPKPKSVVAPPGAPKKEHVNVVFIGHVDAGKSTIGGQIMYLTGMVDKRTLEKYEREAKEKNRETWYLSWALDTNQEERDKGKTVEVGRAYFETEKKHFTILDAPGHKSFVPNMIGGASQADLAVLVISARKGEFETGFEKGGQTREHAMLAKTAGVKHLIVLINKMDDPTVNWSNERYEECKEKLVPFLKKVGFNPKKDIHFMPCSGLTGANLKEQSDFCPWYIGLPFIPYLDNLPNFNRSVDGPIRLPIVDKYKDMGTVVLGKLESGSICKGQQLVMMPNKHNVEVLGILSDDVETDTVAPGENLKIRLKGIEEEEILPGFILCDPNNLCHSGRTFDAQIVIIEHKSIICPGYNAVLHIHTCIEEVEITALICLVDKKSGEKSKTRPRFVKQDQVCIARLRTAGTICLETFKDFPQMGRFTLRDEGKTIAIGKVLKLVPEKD

Structure (SMILES) | IC50 [1] [nM] | cell viability inhibition in combination with pomalidomide [1] | IC50 [2] [nM] | sensitivity of non-cancerous cells (cell viability) [3] | sensitivity of non-cancerous cells (cell viability) [4] | JAK3 protein level [5] | down stream signaling, p-STAT3 band [6] | GSPT1 protein level [7] | DC50 ([7]; immunoblot, read-out: concentration required to reduce GSPT1 by 50% (DC50)) [nM]
O=C1CCC(N2C(=O)c3ccc(NCCCCCC(=O)N4CCC(n5cc(-c6cnc7cccc(-c8cc(F)c(CN9CCOCC9)c(F)c8)c7n6)cn5)CC4)cc3C2=O)C(=O)N1 (centres unmarked) [JA-189, 5-((6-(4-(4-(8-(3,5-difluoro-4-(morpholinomethyl)phenyl)quinoxalin-2-yl)-1H-pyrazol-1-yl)piperidin-1-yl)-6-oxohexyl)amino)-2-(2,6-dioxopiperidin-3-yl)isoindoline-1,3-dione] | 86.3 | greatly reduce the potencies of the degraders | 2.27 | not sensitive | not sensitive | able to reduce JAK1, JAK2 and JAK3 protein levels | weaker bands of p-STAT3 and p-STAT5 | induced degradation of GSPT1 in a dose dependent manner | < 2
CS(=O)(=O)c1ccc(-c2cccc3nc(Nc4ccc(N5CCN(CC(=O)NCCCCCCCCNc6ccc7c(c6)C(=O)N(C6CCC(=O)NC6=O)C7=O)CC5)cc4)nn23)cc1 (centres unmarked) [JA-213] | 69.1 | greatly reduce the potencies of the degraders | 23.1 | not sensitive | not sensitive | able to reduce JAK1, JAK2 and JAK3 protein levels | weaker bands of p-STAT3 and p-STAT5 | induced degradation of GSPT1 in a dose dependent manner | –
